Values belong to the compound of their own block, whether it stands above or below them. Activity calls are given as the source filed them.
Columns and labels:
[1] = growth suppression of beta-catenin-knockout colon cells, dose response, cell-based, HCT116, human colon tumor (AID 1045); type: functional;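 further: HCT116 colon tumor cells with beta catenin knocked out; cells exposed to compound for 60 hours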
X-box-binding protein 1 = X-box-binding protein 1 (Homo sapiens, UniProt P17861); type: functional, Cricetulus griseus;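 further: confirmatory dose-response counter-screen serving a CHOP assay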
[2] = growth suppression of PTEN-null colon cells, dose response, cell-based, HCT116 PTEN knockout (AID 1047); type: functional;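 further: HCT116 colon tumor cells with PTEN knocked out; cells exposed to compound for 60 hours before readout; potency for loss of cell viability measured by luminescence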
[3] = Luminescence Cell-Based Dose Retest to Confirm Inhibitors of Cancer Stem Cells. [Related pubchem assays (depositor defined):AID2717, AID2721]; type: functional; conditions: Homo sapiens
Coagulation factor XII = molecular target: T1, Coagulation factor XII (Homo sapiens, UniProt P00748); experiment: FXIIa inhibitor potency, concentration-response, biochemical (AID 716); type: functional
T1 sequence (P00748 whole entry): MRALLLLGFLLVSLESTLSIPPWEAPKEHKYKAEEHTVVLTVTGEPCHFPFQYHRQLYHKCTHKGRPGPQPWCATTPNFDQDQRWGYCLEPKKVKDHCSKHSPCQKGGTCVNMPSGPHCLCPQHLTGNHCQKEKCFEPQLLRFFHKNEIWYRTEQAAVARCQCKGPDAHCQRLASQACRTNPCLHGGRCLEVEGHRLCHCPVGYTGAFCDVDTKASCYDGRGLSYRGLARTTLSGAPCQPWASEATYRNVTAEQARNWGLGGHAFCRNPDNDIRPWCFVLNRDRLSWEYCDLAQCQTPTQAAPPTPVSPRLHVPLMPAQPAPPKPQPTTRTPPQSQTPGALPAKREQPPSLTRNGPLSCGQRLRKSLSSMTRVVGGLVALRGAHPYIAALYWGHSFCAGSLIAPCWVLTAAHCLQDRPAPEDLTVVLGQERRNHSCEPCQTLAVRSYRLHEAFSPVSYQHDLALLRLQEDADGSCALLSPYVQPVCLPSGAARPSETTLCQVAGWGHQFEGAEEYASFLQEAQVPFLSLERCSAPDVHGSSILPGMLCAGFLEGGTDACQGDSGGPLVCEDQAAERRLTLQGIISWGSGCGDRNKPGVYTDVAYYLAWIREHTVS

[4] = molecular target: Intestinal-type alkaline phosphatase (Homo sapiens, UniProt P09923); experiment: human intestinal alkaline phosphatase activators, dose response, biochemical, luminescence, uHTS hits (AID 463120); type: functional
CAAX prenyl protease 2 = CAAX prenyl protease 2 (Saccharomyces cerevisiae S288c, UniProt Q03530); type: biochemical
[5] = molecular target: T2, Nucleotide-binding oligomerization domain-containing protein 1 (Homo sapiens, UniProt Q9Y239); experiment: NOD1 signaling inhibitors, SAR follow-up, revised (AID 2333); type: functional
T2 sequence (Q9Y239 whole entry): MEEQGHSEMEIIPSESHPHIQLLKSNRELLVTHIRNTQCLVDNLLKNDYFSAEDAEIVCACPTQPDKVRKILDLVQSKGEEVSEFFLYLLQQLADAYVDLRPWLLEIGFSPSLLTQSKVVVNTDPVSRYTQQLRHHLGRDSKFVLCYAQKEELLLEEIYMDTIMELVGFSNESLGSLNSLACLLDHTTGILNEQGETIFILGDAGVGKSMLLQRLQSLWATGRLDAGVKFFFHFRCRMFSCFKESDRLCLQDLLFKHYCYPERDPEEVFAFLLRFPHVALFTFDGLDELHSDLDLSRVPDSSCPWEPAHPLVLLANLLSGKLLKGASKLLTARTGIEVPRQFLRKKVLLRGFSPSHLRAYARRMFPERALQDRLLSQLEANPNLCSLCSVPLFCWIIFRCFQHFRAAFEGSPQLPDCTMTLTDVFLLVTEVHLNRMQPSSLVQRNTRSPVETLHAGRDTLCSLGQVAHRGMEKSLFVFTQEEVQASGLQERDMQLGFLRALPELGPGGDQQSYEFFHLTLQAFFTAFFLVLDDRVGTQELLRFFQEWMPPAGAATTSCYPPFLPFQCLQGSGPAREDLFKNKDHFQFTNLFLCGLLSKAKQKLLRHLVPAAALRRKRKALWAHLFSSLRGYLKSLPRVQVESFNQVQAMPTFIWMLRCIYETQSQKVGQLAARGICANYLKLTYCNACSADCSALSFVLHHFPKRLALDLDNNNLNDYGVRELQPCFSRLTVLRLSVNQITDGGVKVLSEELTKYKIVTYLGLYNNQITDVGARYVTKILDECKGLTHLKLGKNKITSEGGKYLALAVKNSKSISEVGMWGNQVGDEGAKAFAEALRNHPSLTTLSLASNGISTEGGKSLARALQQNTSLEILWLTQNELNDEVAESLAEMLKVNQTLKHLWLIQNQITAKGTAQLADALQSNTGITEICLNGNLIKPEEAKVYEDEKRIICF

HEK293 = experiment: cells; conditions: Homo sapiens;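 further: cells exposed to compound for 14 hours overnight before viability readout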
[6] = HEp-2 cell cytotoxicity, dose response, cytotoxicity control for RSV inhibitor project, HTS (AID 2410); type: functional; conditions: human respiratory syncytial virus
Tumor necrosis factor = Tumor necrosis factor (Homo sapiens, UniProt P01375); experiment: TNFa-triggered NF-kB activation inhibitors, SAR follow-up, cell-based, revised (AID 2337); type: functional
[7] = molecular target: Nucleotide-binding oligomerization domain-containing protein 2 (Homo sapiens, UniProt Q9HC29); experiment: PubChem AID 2334; type: functional
[8] = molecular target: Alkaline phosphatase, placental type (Homo sapiens, UniProt P05187); experiment: PLAP enzyme inhibitors, confirmation, biochemical, luminescence (AID 1512); type: functional
[9] = molecular target: T3, Alkaline phosphatase, tissue-nonspecific isozyme (Homo sapiens, UniProt P05186); experiment: human TNAP enzyme inhibitors, SAR follow-up, biochemical, luminescent, dose response (AID 1056)
T3 sequence (P05186 whole entry): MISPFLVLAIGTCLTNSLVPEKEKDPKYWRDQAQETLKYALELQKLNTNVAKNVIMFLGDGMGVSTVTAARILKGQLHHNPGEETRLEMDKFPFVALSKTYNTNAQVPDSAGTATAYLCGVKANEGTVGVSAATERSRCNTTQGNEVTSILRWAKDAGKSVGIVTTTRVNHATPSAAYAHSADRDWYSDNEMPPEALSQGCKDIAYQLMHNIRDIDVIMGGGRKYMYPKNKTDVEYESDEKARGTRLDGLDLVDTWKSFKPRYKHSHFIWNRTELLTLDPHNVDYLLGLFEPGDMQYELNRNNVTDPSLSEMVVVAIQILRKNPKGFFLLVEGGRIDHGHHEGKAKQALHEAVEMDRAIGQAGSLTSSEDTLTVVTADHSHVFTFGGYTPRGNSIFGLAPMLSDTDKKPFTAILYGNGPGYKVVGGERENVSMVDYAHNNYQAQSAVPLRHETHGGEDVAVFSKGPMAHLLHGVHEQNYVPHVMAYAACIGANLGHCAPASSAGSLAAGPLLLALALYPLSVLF

[10] = molecular target: T4, Mannose-6-phosphate isomerase (Homo sapiens, UniProt P34949); experiment: PMI enzyme inhibitors, confirmation, biochemical, fluorescence intensity (AID 1535)
T4 sequence (P34949 whole entry): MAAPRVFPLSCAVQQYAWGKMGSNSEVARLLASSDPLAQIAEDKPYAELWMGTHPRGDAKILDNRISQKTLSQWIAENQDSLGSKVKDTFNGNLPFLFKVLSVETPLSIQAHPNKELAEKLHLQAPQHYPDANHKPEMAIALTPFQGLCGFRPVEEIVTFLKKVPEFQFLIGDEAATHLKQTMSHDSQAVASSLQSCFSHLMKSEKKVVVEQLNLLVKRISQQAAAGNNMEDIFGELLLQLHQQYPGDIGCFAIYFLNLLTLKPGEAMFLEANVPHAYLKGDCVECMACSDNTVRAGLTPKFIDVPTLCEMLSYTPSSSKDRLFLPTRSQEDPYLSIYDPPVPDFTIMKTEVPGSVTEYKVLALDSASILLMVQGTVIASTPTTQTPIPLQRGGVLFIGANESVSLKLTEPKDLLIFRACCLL

[11] = molecular target: Phosphoethanolamine/phosphocholine phosphatase (Homo sapiens, UniProt Q8TCT1); experiment: SAR assay for compounds that inhibit PHOSPHO1. [Related pubchem assays (depositor defined):AID1545, AID1565, AID1574]
Phosphomannomutase 2 = molecular target: T5, Phosphomannomutase 2 (Homo sapiens, UniProt O15305); experiment: Counter screen SAR assay for PMM2 inhibitors via a fluorescence intensity assay. [Related pubchem assays (depositor defined):AID1545, AID1574]
T5 sequence (O15305 whole entry): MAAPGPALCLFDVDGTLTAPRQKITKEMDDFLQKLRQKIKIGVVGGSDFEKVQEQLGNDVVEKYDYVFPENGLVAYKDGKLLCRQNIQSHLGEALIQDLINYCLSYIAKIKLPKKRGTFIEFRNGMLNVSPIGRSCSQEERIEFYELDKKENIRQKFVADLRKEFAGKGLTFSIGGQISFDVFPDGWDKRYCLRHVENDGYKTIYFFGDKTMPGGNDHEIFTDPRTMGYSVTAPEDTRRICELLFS

Sequence of Tumor necrosis factor (P01375 whole entry, the tested form may be a part): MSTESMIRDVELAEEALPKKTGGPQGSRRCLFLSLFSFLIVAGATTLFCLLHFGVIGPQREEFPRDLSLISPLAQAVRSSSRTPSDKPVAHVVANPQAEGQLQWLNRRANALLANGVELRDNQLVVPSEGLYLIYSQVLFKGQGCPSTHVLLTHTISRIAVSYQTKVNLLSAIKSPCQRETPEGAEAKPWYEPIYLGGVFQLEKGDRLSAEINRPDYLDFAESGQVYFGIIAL
Sequence of Nucleotide-binding oligomerization domain-containing protein 2 (Q9HC29 whole entry, the tested form may be a part): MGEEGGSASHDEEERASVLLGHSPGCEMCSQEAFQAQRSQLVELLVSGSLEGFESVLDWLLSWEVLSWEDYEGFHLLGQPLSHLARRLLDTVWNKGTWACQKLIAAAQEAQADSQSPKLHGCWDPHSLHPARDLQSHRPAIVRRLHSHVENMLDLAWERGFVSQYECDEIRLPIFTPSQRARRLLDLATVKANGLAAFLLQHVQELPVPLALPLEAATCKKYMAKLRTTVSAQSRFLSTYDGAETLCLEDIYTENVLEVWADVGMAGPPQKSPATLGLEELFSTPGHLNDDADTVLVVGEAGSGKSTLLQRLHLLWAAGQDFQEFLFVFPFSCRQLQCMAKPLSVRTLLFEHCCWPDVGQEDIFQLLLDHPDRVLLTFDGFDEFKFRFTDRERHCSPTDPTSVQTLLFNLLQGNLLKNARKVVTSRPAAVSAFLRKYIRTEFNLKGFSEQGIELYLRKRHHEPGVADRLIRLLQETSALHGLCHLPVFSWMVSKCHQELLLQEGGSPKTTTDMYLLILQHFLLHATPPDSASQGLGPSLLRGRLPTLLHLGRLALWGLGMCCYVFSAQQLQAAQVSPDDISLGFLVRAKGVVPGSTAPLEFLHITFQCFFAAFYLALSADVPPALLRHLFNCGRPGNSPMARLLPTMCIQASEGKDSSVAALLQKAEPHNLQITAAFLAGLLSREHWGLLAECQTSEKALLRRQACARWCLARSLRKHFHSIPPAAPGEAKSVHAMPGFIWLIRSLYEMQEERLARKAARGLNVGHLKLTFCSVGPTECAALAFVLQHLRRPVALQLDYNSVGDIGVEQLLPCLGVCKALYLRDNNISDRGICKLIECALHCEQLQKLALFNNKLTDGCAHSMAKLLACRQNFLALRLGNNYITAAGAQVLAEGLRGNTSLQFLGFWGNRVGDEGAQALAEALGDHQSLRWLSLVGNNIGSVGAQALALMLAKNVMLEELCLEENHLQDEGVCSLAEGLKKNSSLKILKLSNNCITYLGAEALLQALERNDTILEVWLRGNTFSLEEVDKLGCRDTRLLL
Sequence of Phosphoethanolamine/phosphocholine phosphatase (Q8TCT1 whole entry): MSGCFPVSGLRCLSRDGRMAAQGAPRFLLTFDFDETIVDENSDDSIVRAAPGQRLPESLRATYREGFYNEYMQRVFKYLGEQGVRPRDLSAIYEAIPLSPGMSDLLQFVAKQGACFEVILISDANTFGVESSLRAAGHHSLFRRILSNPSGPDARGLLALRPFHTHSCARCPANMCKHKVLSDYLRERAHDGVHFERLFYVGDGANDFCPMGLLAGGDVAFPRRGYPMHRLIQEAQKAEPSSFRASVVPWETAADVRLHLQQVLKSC
Sequence of X-box-binding protein 1 (P17861 whole entry): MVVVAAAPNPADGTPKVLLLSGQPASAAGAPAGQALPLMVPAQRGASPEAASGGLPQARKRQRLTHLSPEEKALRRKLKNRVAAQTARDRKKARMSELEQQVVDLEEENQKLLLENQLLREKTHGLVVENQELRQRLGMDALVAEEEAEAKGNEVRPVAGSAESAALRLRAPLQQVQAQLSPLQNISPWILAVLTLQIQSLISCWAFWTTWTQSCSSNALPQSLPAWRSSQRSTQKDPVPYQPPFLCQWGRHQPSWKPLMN
Sequence of Intestinal-type alkaline phosphatase (P09923 whole entry): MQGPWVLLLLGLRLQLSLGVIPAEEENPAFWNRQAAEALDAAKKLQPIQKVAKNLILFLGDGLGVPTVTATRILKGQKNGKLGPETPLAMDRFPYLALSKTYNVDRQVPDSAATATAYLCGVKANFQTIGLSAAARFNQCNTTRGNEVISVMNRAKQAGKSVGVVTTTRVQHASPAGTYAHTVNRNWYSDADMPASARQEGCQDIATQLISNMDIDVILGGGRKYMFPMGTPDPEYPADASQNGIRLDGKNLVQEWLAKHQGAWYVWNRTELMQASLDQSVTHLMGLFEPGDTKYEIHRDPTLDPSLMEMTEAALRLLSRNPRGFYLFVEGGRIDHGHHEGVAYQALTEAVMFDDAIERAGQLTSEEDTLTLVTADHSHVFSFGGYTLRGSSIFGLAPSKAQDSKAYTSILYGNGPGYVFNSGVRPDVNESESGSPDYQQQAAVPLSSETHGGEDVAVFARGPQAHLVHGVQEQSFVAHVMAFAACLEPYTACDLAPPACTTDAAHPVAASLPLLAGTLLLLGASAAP
Sequence of Alkaline phosphatase, placental type (P05187 whole entry): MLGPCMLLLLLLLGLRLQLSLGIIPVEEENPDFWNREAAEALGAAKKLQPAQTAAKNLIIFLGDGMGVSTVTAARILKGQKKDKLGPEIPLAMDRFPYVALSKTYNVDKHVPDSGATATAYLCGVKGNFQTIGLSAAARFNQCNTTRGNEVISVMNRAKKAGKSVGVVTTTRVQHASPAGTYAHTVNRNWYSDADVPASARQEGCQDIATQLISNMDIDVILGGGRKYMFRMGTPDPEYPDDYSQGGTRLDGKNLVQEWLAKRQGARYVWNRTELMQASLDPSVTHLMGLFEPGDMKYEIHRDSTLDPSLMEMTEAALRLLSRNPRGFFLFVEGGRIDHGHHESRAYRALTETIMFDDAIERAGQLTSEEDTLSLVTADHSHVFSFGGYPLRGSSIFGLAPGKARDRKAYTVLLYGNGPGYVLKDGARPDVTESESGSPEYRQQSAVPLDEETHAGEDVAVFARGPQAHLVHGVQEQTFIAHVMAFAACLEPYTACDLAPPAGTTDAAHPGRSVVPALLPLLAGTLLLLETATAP
Sequence of CAAX prenyl protease 2 (Q03530 whole entry, the tested form may be a part): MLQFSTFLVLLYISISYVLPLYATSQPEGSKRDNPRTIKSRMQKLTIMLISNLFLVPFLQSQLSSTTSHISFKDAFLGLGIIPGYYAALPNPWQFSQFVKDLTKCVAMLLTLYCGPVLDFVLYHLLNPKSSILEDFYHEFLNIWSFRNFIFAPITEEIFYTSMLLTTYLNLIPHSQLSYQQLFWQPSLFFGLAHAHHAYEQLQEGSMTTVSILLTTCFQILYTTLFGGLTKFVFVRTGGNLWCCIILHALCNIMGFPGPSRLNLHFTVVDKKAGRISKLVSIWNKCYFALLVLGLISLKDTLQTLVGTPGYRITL

IC50 (Coagulation factor XII): > 50 µM (inactive)
Structure (SMILES): COc1ccc2cc(CN(CCO)C(=O)c3ccccc3F)c(=O)[nH]c2c1

IC50 (Coagulation factor XII): > 50 µM (inactive)
Structure (SMILES): CCCSc1nnc(-c2c[nH]c3ccccc23)n1C

EC50 [4]: 13.1 µM (active)
Structure (SMILES): CCOc1ccc(CC(=O)NNC(=S)NCCc2ccccc2)cc1

IC50 [8]: 4.87 µM (active)
IC50 [9]: 39.3 µM (active)
Structure (SMILES): O=C(CN1CCCc2ccccc21)c1ccc(O)c(O)c1

IC50 [10]: 0.709 µM (active)
IC50 [11]: 0.1 µM (active)
IC50 (Phosphomannomutase 2): 2.46 µM (active)
Structure (SMILES): O=c1c2c([N+](=O)[O-])cc([N+](=O)[O-])cc2sn1-c1ccc(F)cc1

IC50 [10]: 1.45 µM (active)
IC50 [11]: 0.0233 µM (active)
IC50 (Phosphomannomutase 2): 4.22 µM (active)
Structure (SMILES): O=c1c2c([N+](=O)[O-])cc([N+](=O)[O-])cc2sn1-c1ccccc1F

The remaining lines, values behind:

Structure (SMILES): Cc1ccc(NC(S)=NC(NC(=O)Cc2cccc3ccccc23)C(Cl)(Cl)Cl)cc1 (configuration not stated)
EC50 [1]: 18.3 µM (active)
Absolute IC50 (XBP1) (X-box-binding protein 1): 10 µM
EC50 [2]: 13.1 µM (active)
AC50 [3]: 2.18 µM (active)

Structure (SMILES): CN(C)CCNC(=O)c1cccn(Cc2cc(C(F)(F)F)cc(C(F)(F)F)c2)c1=O
AC50 (CAAX prenyl protease 2): > 100 µM (inactive)

Structure (SMILES): O=C(CCc1ccccc1)Nc1sc2c(c1C(=O)O)CCCC2
IC50 [5]: > 20 µM (inactive)
IC50 (HEK293): > 20 µM (inactive)
CC50 [6]: 42.7 µM (active)
IC50 (Tumor necrosis factor): > 20 µM (inactive)
IC50 (cells): 39.6 µM (active)
AC50 [3]: 28.3 µM (active)
IC50 [7]: > 20 µM (inactive)

Structure (SMILES): Cn1nc(-c2ccc(Cl)cc2)cc1C(=O)NC1CCCc2c1cnn2-c1ccccc1F (configuration not stated)
IC50 [5]: 1.92 µM (active)
IC50 (HEK293): > 20 µM (inactive)
IC50 (Tumor necrosis factor): 2.72 µM (active)
IC50 [7]: 1.72 µM (active)
